Values of other authors as cited in patent US10588912B2, “Methods of reducing mammographic breast density and/or breast cancer risk” (Havah Therapeutics Pty Ltd., priority 2014, dated 2020).

Conditions: oral absorption

SMILES: C[C@]12CC[C@H]3[C@@H](CCC4=CC(=O)CC[C@@]43C)[C@@H]1CC[C@@H]2O [testosterone]
- fraction broken down in the intestines by aromatase and other metabolic pathways: approximately 85%
